Source: patent US20140336187A1, “METHODS FOR TREATING LEISHMANIASIS” (HOWARD UNIVERSITY, priority 2011, published 2014)

Assays:
serum IgG = experiment: Seroprevalence of L. donovani-specific serum IgG (ELISA) in infected BALB/c mice; assay type: in vivo; conditions: serum 14 days post-infection
Procedure: To make L. donovani crude antigens, L. donovani promastigotes and amastigotes were counted using a hemocytometer, spun at 800×g for 10 min, and washed three times with 1× phosphate buffered saline (PBS). After the final wash, parasites were resuspended in 1×PBS at a concentration of 1×10^8 promastigotes (amastigotes)/ml and lysed by 5 freeze and thaw cycles or by sonication at maximum speed for 5 cycles of 10 seconds with cooling, and frozen at −80° C. until needed for assay (Burns et al., 1993; Zijlstra et al., 1998). Protein concentration was determined by the BIORAD assay.
5 μg/ml of antigen in 100 mM carbonate-bicarbonate buffer […], were added to the wells of a 96 well polyvinyl plate (100 μl/well) and incubated at room temperature for 1 hr or overnight at 4° C. Wells were emptied, blocking buffer was added (200 μl/well), and wells were incubated at room temperature for 1 hr. Wells were emptied and 50 or 100 μl/well of diluted samples added (5× mice serum), and incubated for 1.5-2 hrs. Plates were washed 4× and an anti-mouse-IgG was diluted 1:500, and added (100 μl/well); these plates were incubated for 30 min in the dark and secondary antibody tagged to HRP was added at a dilution of 1:500. TMB-HRP developer was added 100 μl/well for 30 min in the dark and plates were read at 630 nm on a spectrophotometer (Zijlstra et al., 1998).
The purpose of the test was to confirm positive infectivity through levels of serum IgG in infected BALB/c mice. A high serum IgG level is predictive of an infection with visceral leishmaniasis. The results are expressed as percent increase or percent decrease in IgG levels. Four compounds with three different concentrations each were used for the tests.
Serum levels of IgG in infected but untreated mice increased by 20.36% compared to that of uninfected mice. […] Specific-parasite IgG antibodies produced by BALB/c mice inoculated with 10^6 infective concentrations of Leishmania donovani. Mice (n=2 per group) were infected subcutaneously at the base of their tail with log phase promastigotes. […] Serum from mice was obtained fourteen days post-infection and tested individually by ELISA to determine the specific levels of L. donovani IgG. Bars indicate the mean±S.E. (Standard Error) from two mice.

[1] = tested on: NIH 3T3 BALB/c mouse fibroblast cell line; experiment: Cytotoxic assessment on NIH 3T3 BALB/c mouse fibroblasts (resazurin assay); conditions: for IC50: read-out: IC50 (μM) Fibroblasts, NIH 3T3 BALB/c mouse fibroblasts, 48 hrs, resazurin assay, means ± S.E.; for cytotoxicity compared with Amphotericin B: Balb/C 3T3 mouse fibroblast cell line, FIG. 2
Procedure: Fibroblasts cells (4×10^4 cells/nil and adding 100 μl per well) were incubated with different concentrations of the naphthoquinone compounds (FIGS. 1) (3, 7, 13, 29, 33, and 44 μM) for 48 hrs after which viability of live fibroblast cells was determined by the Resazurin Method using a microplate reader (Bio-Tek Instruments EL311).
NIH 3T3 mouse fibroblasts were maintained in Roswell Park Memorial Institute (RPMI) medium supplemented with 10% Fetal calf serum, 50 units/ml penicillin, 50 units/ml streptomycin B in a humidified incubator at 37° C. in the presence of 5% CO2 (Scala et al., 2010).
Assays were performed to assess the cytotoxicity of these compounds in 96-well microtiter plates, with each well containing 100 μl of RPMI medium supplemented with 10% bovine calf scrum with 50 U/ml Pen-Strep. The cells were plated at a concentration of 4×10^3 cells/well (4×10^4 cells/ml). Fibroblast cells were then incubated with compounds for 48 hrs and inspected under an inverted microscope to assure growth of the controls and sterile conditions. 10 μl of resazurin solution (12.5 mg resazurin dissolved in 100 nil distilled water) were added to each well and the plates were incubated for another 2 hrs. The plates were read with a microplate reader at 570 nm. Experiments were done at least 3 times in triplicates (Scala et al., 2010).
Cell viability was determined using Resazurin Assay. The IC50 values were calculated and expressed as means±S.E (standard error).

| SMILES | IgG Increase (%) (serum IgG; 20 mg/kg) | IC50 [1] | IgG Increase (%) (serum IgG; 5 mg/kg) | IgG Increase (%) (serum IgG; 50 mg/kg) | cytotoxicity compared with Amphotericin B [1] | melting point |
| --- | --- | --- | --- | --- | --- | --- |
| C[C@@H]1[C@H](O)[C@@H](C)/C=C/C=C/C=C/C=C/C=C/C=C/C=C/[C@H](O[C@@H]2O[C@H](C)[C@@H](O)[C@H](N)[C@@H]2O)C[C@@H]2O[C@](O)(C[C@@H](O)C[C@@H](O)[C@H](O)CC[C@@H](O)C[C@@H](O)CC(=O)O[C@H]1C)C[C@H](O)[C@H]2C(=O)O [Am. B., Amphotericin B, reference compound] | 24.74% | 1.18 µM |  |  |  |  |
| NC1=C(Br)C(=O)c2ccccc2C1=O [IMD8, 2-Amino-3-bromo-1,4-naphthoquinone] | 28.66% |  | 20.94% | 23.16% | far less cytotoxic than Amphotericin B |  |
| O=C1C(Cl)=C(N(C(=O)c2cccc(Cl)c2)C(=O)c2cccc(Cl)c2)C(=O)c2ccccc21 [IMDNQ4, 3-Chloro-N-(3-chlorobenzoyl)-N-(3-chloro-1,4-dioxo-1,4-dihydronaphthalen-2-yl)-benzamide] | 6.81% | 168 µM | 11.34% | 26.76% | far less cytotoxic than Amphotericin B | 258 to 260 °C |
| CCCC(=O)N(C(=O)CCC)C1=C(Cl)C(=O)c2ccccc2C1=O [IMDNQ15] | 14.12% | 2.94 µM | 21.79% | 30.70% |  |  |
